Measured values published in paper PMC8002023, “3D Pharmacophore-Based Discovery of Novel KV10.1 Inhibitors with Antiproliferative Activity” (Cancers, 2021).
“Also recorded” adds a separate entry of the source.

What was measured:
[1] = biological target: T1, hERG (Homo sapiens, UniProt Q12809); test: Whole-cell patch clamp on stably transfected HEK-293 cells, hERG tail current; type: cell-based; settings: peak tail current at −40 mV after +20 mV
T1 construct: expressed in transfected cells
Experimental: Whole-cell patch clamp experiments were performed on stably transfected HEK-293 cells. The cells were grown on fibronectin-coated glass coverslips in DMEM supplemented with 10% FCS and 300 µg/mL Zeocin. Experiments were performed at room temperature under continuous perfusion. The extracellular solution contained (mM) 160 NaCl, 2.5 KCl, 2 CaCl2, 1 MgCl2, 10 Hepes/NaOH, pH 7.4, 8 glucose. For the experiments determining conductance–voltage relationships, tail currents were made visible by substituting 60 mM NaCl by KCl ([…], 100 NaCl). Pipettes were pulled from #1 glass capillaries (WPI) to resistances of 1–3 MΩ when loaded with the intracellular solution (100 KCl, 45 N-methyl-D-glucamine, 10 1,2-bis(o-aminophenoxy)ethane-N,N,N′,N′-tetraacetic acid (BAPTA), 10 Hepes pH 7.35). Data acquisition was performed using a EPC10 Plus amplifier (HEKA Elektronik) and Patch Master software. Drug application was performed using an 8-channel fast solution exchanger (ALA). All compounds were dissolved in DMSO to a final concentration of 10 mM. 0.5% DMSO in extracellular solution served as control. KV10.1 currents were elicited by 500 ms depolarisations to +40 mV under continuous perfusion with the compound-containing or control solution. hERG current amplitudes were measured as the peak tail current during a 4 s repolarization to −40 mV after a depolarising pulse to +20 mV lasting for 2 s.

[2] = test system: MCF-7 cells; test: Cell growth in 2D culture (Incucyte confluence, 72 h), MCF-7; type: cell-based; settings: for IC50: high KV10.1 and low hERG expression
Experimental: Cell lines MCF-7 (DSMZ ACC 115), PANC-1 (DSMZ ACC 783), and hTERT-RPE1 (ATCC CRL 4000) were grown in the media recommended by the cell provider in a humidified atmosphere at 5% CO2 and 37 °C. For cell growth experiments, 10^4 cells/well were seeded in 96-well flat bottom culture plates (Corning) and allowed to grow for 24 h. The compounds were then added in the corresponding growth medium, and the plate was imaged every hour for 72 h (two images per well and eight wells per condition in two independent experiments for compound 8 and five for ZVS-08 and compound 1) in an Incucyte system (Sartorius/Essen biosciences). Culture confluence was determined in the phase contrast images and is expressed as percent confluence per well. The growth was then normalised to the value in the absence of compounds.
KV10.1 inhibitors with a favourable pharmacological profile are promising candidates for cancer therapy. To investigate the activity of the new compounds on cancer cells proliferation, compounds ZVS-08, 1 and 8 were tested on MCF-7, a breast cancer cell line showing high KV10.1 expression and low hERG expression, and on Panc1, a pancreatic cancer cell line with undetectable KV10.1 expression and high level of hERG expression. hTERT-RPE1 cells served as a non-cancer cell line. hTERT-RPE1 cells show transient physiological expression of Kv10.1 that begins during the G2 phase of the cell cycle and extends through mitosis as present in normal cells. Different concentrations of the compounds were added to the culture medium and the growth of the cell was monitored over 72 h (Figure 14).

[3] = test system: Salmonella typhimurium strain TA98; test: Salmonella/microsomal reverse mutation (Ames) assay, TA98; parameters: key to bacterial background lawn: slightly reduced bacterial background; moderately reduced bacterial background; extremely reduced bacterial background; bacterial background is absent; settings: for mutagenic response: TA98, 0.0158–0.158 mg/plate, −S9 and +S9; for cytotoxic concentration to bacterial strain: TA98, −/+ S9 metabolic activation; for induction factor (IF): IF ≥ 2 positive
Experimental: (§1) Mutagenicity of compounds ZVS-08 and 8 was tested with the Salmonella/microsomal reverse mutation (Ames) assay on Salmonella typhimurium strains TA98 and TA100 without and with external metabolic activation according to the OECD guidelines (OECD TG 471) with minor modifications. Briefly, 100 µL of ZVS-08 and 8 (0.158, 0.5, 1.58, 5, 15.8, and 50 mg/mL corresponding to the final concentration of 0.0158, 0.05, 0.158, 0.5, 1.58, and 5 mg/plate, respectively), […] bacterial culture of S. typhimurium (overnight culture at 37 °C), and […] of phosphate buffer (for assays without metabolic activation) or 10% S9 mix (for assays with metabolic activation) were added to 2 mL of molten top agar (supplemented with histidine/biotin, final concentration 0.05 mM), gently mixed and poured onto minimal agar plates. The number of His+ revertants was counted after 48 h (TA100) and 72 h (TA98) of incubation at 37 °C. Three plates were used per treatment point. The mutagenic potential of the compounds was expressed as an induction factor (IF), where IF = (number of revertants in the presence of the compound)/(number of revertants in solvent control). Additionally, each plate was checked for possible toxic effects of tested compounds. […] 4-nitroquinoline- N-oxide (4-NQNO; 0.25 μg/plate) for TA98 and sodium azide (NaN3; 0.25 μg/plate) for TA100 were used as positive controls without S9 metabolic activation, while benzo[a]pyrene (B[a]P; 2.5 μg/plate) was used as positive controls for both bacterial strains with S9 metabolic activation.

[4] = test system: Salmonella typhimurium strain TA100; test: Salmonella/microsomal reverse mutation (Ames) assay, TA100; parameters: key to bacterial background lawn: slightly reduced bacterial background; moderately reduced bacterial background; extremely reduced bacterial background; bacterial background is absent; settings: for mutagenic response: TA100, 0.0158–0.158 mg/plate, −S9 and +S9; for cytotoxic concentration to bacterial strain: TA100, −/+ S9 metabolic activation; for induction factor (IF): IF ≥ 2 positive
Experimental: as §1

T1 sequence (Q12809 whole entry): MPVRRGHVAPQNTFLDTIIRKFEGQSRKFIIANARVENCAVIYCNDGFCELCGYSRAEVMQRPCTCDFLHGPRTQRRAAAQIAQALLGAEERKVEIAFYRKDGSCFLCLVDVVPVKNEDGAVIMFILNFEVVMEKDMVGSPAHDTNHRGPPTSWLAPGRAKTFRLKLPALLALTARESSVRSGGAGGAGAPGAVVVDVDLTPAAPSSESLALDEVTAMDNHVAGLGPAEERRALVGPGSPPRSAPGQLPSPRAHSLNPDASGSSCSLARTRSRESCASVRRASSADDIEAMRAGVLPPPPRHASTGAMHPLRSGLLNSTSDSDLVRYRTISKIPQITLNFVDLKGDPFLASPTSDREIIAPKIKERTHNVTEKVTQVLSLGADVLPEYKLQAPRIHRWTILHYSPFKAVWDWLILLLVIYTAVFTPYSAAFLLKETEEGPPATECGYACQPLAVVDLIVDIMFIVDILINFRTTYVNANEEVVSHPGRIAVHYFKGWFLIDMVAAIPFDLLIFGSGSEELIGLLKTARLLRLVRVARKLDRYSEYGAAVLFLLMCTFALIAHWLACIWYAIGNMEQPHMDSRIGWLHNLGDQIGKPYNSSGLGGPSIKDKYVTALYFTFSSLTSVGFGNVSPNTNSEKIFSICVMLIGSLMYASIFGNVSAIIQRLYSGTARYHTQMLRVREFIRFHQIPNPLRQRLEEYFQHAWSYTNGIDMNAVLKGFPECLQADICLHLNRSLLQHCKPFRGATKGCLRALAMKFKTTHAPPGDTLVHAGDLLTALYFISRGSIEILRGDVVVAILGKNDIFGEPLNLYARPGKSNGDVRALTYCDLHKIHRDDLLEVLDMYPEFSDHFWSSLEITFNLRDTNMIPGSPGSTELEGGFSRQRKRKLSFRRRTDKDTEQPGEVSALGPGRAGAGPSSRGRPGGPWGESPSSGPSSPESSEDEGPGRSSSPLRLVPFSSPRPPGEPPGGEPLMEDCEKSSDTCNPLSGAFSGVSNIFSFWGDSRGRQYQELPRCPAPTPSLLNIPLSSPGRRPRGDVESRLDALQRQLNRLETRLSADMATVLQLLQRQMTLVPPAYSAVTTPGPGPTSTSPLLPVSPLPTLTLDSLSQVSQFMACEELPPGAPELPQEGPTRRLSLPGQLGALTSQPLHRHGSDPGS

O=[N+]([O-])c1cc(C(F)(F)F)ccc1Nc1ccc(OCC(O)CN2CCOCC2)cc1 (centres unmarked) [Compound 8]
IC50 [1]: 0.156 µM | effect on growth of MCF-7 cells ([2]; concentrations tested): ineffective; also recorded: inactive | mutagenic response [3]: no mutagenic response | cytotoxic concentration to bacterial strain [3]: ≥ 0.5 mg/plate | mutagenic response [4]: no mutagenic response | cytotoxic concentration to bacterial strain [4]: ≥ 0.5 mg/plate

CN(C)CC(O)COc1ccc(Nc2ccc(C(F)(F)F)cc2[N+](=O)[O-])cc1 (centres unmarked) [ZVS-08]
IC50 [1]: 0.194 µM | IC50 ([2]; Homo sapiens, MCF7, 72 h): 6.8 µM | IC50 [2]: ~5 µM | mutagenic response [3]: no mutagenic response | Average number of revertant colonies (mean ± SD) ([3]; TA98, +S9, 0.0158 mg/plate): 31.00 ± 3.61 | induction factor (IF) ([3]; TA98, +S9, 0.0158 mg/plate): 0.85 | Average number of revertant colonies (mean ± SD) ([3]; TA98, +S9, 0.05 mg/plate): 45.33 ± 8.62 | induction factor (IF) ([3]; TA98, +S9, 0.05 mg/plate): 1.25 | Average number of revertant colonies (mean ± SD) ([3]; TA98, +S9, 0.158 mg/plate): 34.67 ± 14.05 | bacterial background lawn ([3]; TA98, +S9, 0.158 mg/plate): a | induction factor (IF) ([3]; TA98, +S9, 0.158 mg/plate): 0.95 | Average number of revertant colonies (mean ± SD) ([3]; TA98, +S9, 0.5 mg/plate): 0 | bacterial background lawn ([3]; TA98, +S9, 0.5 mg/plate): b | Average number of revertant colonies (mean ± SD) ([3]; TA98, +S9, 1.58 mg/plate): 0 | bacterial background lawn ([3]; TA98, +S9, 1.58 mg/plate): d | Average number of revertant colonies (mean ± SD) ([3]; TA98, +S9, 5 mg/plate): 0 | bacterial background lawn ([3]; TA98, +S9, 5 mg/plate): d | Average number of revertant colonies (mean ± SD) ([3]; TA98, -S9, 0.0158 mg/plate): 21.67 ± 4.51 | induction factor (IF) ([3]; TA98, -S9, 0.0158 mg/plate): 0.86 | Average number of revertant colonies (mean ± SD) ([3]; TA98, -S9, 0.05 mg/plate): 22.67 ± 8.08 | induction factor (IF) ([3]; TA98, -S9, 0.05 mg/plate): 0.89 | Average number of revertant colonies (mean ± SD) ([3]; TA98, -S9, 0.158 mg/plate): 17.67 ± 3.79 | bacterial background lawn ([3]; TA98, -S9, 0.158 mg/plate): a | induction factor (IF) ([3]; TA98, -S9, 0.158 mg/plate): 0.70 | Average number of revertant colonies (mean ± SD) ([3]; TA98, -S9, 0.5 mg/plate): 0 | bacterial background lawn ([3]; TA98, -S9, 0.5 mg/plate): c | Average number of revertant colonies (mean ± SD) ([3]; TA98, -S9, 1.58 mg/plate): 0 | bacterial background lawn ([3]; TA98, -S9, 1.58 mg/plate): d | Average number of revertant colonies (mean ± SD) ([3]; TA98, -S9, 5 mg/plate): 0 | bacterial background lawn ([3]; TA98, -S9, 5 mg/plate): d | cytotoxic concentration to bacterial strain [3]: ≥ 0.5 mg/plate | mutagenic response [4]: no mutagenic response | Average number of revertant colonies (mean ± SD) ([4]; TA100, +S9, 0.0158 mg/plate): 102.67 ± 15.01 | induction factor (IF) ([4]; TA100, +S9, 0.0158 mg/plate): 1.02 | Average number of revertant colonies (mean ± SD) ([4]; TA100, +S9, 0.05 mg/plate): 81.67 ± 14.57 | induction factor (IF) ([4]; TA100, +S9, 0.05 mg/plate): 0.81 | Average number of revertant colonies (mean ± SD) ([4]; TA100, +S9, 0.158 mg/plate): 71.00 ± 7.21 | bacterial background lawn ([4]; TA100, +S9, 0.158 mg/plate): a | induction factor (IF) ([4]; TA100, +S9, 0.158 mg/plate): 0.71 | Average number of revertant colonies (mean ± SD) ([4]; TA100, +S9, 0.5 mg/plate): 0 | bacterial background lawn ([4]; TA100, +S9, 0.5 mg/plate): b | Average number of revertant colonies (mean ± SD) ([4]; TA100, +S9, 1.58 mg/plate): 0 | bacterial background lawn ([4]; TA100, +S9, 1.58 mg/plate): d | Average number of revertant colonies (mean ± SD) ([4]; TA100, +S9, 5 mg/plate): 0 | bacterial background lawn ([4]; TA100, +S9, 5 mg/plate): d | Average number of revertant colonies (mean ± SD) ([4]; TA100, -S9, 0.0158 mg/plate): 114.00 ±2.00 | induction factor (IF) ([4]; TA100, -S9, 0.0158 mg/plate): 1.29 | Average number of revertant colonies (mean ± SD) ([4]; TA100, -S9, 0.05 mg/plate): 99.67 ± 16.80 | induction factor (IF) ([4]; TA100, -S9, 0.05 mg/plate): 1.12 | Average number of revertant colonies (mean ± SD) ([4]; TA100, -S9, 0.158 mg/plate): 81.00 ± 5.29 | bacterial background lawn ([4]; TA100, -S9, 0.158 mg/plate): a | induction factor (IF) ([4]; TA100, -S9, 0.158 mg/plate): 0.91 | Average number of revertant colonies (mean ± SD) ([4]; TA100, -S9, 0.5 mg/plate): 0 | bacterial background lawn ([4]; TA100, -S9, 0.5 mg/plate): c | Average number of revertant colonies (mean ± SD) ([4]; TA100, -S9, 1.58 mg/plate): 0 | bacterial background lawn ([4]; TA100, -S9, 1.58 mg/plate): d | Average number of revertant colonies (mean ± SD) ([4]; TA100, -S9, 5 mg/plate): 0 | bacterial background lawn ([4]; TA100, -S9, 5 mg/plate): d | cytotoxic concentration to bacterial strain [4]: ≥ 0.5 mg/plate
